Calls of active or inactive are those of the source. The rule behind the calls is not given here.
Tests used:
[1] = molecular target: T1, Nuclear factor erythroid 2-related factor 2 (Homo sapiens) (UniProt Q16236); experiment: Activation of NRF2 in human MHCC97H cells treated for 8 to 24 hrs by immunoblot analysis; type: cell-based; details: filed as activator, dose 10-40 µM, time 8-24 hrs
T1 sequence (whole entry): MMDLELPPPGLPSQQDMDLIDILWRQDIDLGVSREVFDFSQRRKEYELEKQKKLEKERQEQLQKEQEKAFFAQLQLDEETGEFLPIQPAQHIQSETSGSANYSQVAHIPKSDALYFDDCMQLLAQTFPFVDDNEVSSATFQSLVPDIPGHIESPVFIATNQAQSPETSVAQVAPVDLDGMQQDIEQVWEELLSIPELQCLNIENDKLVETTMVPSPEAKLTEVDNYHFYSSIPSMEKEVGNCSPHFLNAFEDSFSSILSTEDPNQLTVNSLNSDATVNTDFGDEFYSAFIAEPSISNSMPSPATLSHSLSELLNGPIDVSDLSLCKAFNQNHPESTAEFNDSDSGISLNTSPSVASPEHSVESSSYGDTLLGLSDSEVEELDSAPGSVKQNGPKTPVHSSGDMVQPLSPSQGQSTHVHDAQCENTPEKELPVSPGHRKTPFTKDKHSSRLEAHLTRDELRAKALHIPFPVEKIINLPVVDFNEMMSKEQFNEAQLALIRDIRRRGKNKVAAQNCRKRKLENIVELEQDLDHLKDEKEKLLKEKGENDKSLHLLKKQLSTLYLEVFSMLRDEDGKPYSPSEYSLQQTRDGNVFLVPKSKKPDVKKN

[2] = molecular target: T1, Nuclear factor erythroid 2-related factor 2 (Homo sapiens); experiment: Activation of NRF2 in human HepG2 cells treated for 8 to 24 hrs by immunoblot analysis; type: cell-based; details: filed as activator, dose 10-40 µM, time 8-24 hrs
[3] = molecular target: T2, Nuclear factor erythroid 2-related factor 2 (Mus musculus) (UniProt Q60795); experiment: Activation of NRF2 in mouse BNL CL.2 cells treated for 8 to 24 hrs by immunoblot analysis; type: cell-based; details: filed as activator, dose 10-40 µM, time 8-24 hrs
T2 sequence (whole entry): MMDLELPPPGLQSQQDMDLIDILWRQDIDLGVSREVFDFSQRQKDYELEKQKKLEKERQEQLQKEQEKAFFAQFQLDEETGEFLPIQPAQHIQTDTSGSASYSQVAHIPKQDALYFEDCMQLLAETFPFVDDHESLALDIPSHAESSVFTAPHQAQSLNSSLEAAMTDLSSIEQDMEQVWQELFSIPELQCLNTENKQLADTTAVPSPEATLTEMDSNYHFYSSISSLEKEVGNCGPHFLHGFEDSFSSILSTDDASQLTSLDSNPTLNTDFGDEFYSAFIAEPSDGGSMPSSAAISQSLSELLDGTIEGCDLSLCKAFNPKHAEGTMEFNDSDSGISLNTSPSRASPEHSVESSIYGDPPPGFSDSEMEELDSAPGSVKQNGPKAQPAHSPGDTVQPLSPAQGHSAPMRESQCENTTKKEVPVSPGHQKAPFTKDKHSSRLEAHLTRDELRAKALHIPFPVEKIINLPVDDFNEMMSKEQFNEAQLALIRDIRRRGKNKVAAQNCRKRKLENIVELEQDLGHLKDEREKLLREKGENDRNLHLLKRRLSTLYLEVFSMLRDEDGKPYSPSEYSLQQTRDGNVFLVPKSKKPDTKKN

BNL CL.2 [4] = experiment: Effect on KEAP1 protein level in mouse BNL CL.2 cells assessed as no change in level at 40 uM measured upto 24 hrs; type: functional, cell-based; details: filed as activator
Mus musculus [5] = experiment: In vivo activation of NRF2 in C57BL/6J mouse liver assessed as upregulation of NRF2 level administered at 40 mg/kg, ip 3 times in a day by immunohistochemistry analysis; type: functional, organism-based; details: filed as activator, time 1.0 day
[6] = molecular target: T2, Nuclear factor erythroid 2-related factor 2 (Mus musculus); experiment: Activation of NRF2 in mouse BNL CL.2 cells assessed as increase in Akr1c1 gene level upto 40 uM incubated upto 24 hrs by rt-qPCR analysis; type: cell-based; details: filed as activator
[7] = molecular target: T2, Nuclear factor erythroid 2-related factor 2 (Mus musculus); experiment: Activation of NRF2 in mouse BNL CL.2 cells assessed as increase in Gclm gene level upto 40 uM incubated upto 24 hrs by rt-qPCR analysis; type: cell-based; details: filed as activator
[8] = molecular target: T2, Nuclear factor erythroid 2-related factor 2 (Mus musculus); experiment: Activation of NRF2 in mouse BNL CL.2 cells assessed as increase in Hmox1 gene level upto 40 uM incubated upto 24 hrs by rt-qPCR analysis; type: cell-based; details: filed as activator
[9] = molecular target: T2, Nuclear factor erythroid 2-related factor 2 (Mus musculus); experiment: Ubiquitination activity in Flag-tagged NRF2 in mouse BNL CL.2 cells at 40 uM for 24 hrs followed by MG132 treatment for 4 hrs by immunoprecipitation assay; type: cell-based
[10] = molecular target: T2, Nuclear factor erythroid 2-related factor 2 (Mus musculus); experiment: Binding affinity to Flag-tagged NRF2 in mouse BNL CL.2 cells assessed as increase in protein half life treated upto 45 mins with compound; type: cell-based; details: filed as activator
[11] = molecular target: T2, Nuclear factor erythroid 2-related factor 2 (Mus musculus); experiment: Activation of flag-tagged NRF2 in mouse BNL CL.2 cells in presence of wildtype His-tagged KEAP1 at 40 uM for 24 hrs followed by treatment with MG132 for 4 hrs by immunoblot assay; type: cell-based; details: filed as activator
[12] = molecular target: T2, Nuclear factor erythroid 2-related factor 2 (Mus musculus); experiment: Activation of flag-tagged NRF2 in mouse BNL CL.2 cells in presence of His-tagged KEAP1 C151S mutant at 40 uM for 24 hrs followed by treatment with MG132 for 4 hrs by immunoblot assay; type: cell-based; details: filed as activator
[13] = molecular target: Kelch-like ECH-associated protein 1/Nuclear factor erythroid 2-related factor 2 (Mus musculus) (UniProt Q60795+Q9Z2X8); experiment: Inhibition of in flag-tagged NRF2/wildtype His-tagged KEAP1 in mouse BNL CL.2 cells and protein-protein interaction at 40 uM for 24 hrs followed by treatment with MG132 for 4 hrs by immunoblot assay; type: cell-based; details: filed as activator
Chain of Kelch-like ECH-associated protein 1/Nuclear factor erythroid 2-related factor 2 (Mus musculus) (Q9Z2X8 whole entry, looked up, one chain of several): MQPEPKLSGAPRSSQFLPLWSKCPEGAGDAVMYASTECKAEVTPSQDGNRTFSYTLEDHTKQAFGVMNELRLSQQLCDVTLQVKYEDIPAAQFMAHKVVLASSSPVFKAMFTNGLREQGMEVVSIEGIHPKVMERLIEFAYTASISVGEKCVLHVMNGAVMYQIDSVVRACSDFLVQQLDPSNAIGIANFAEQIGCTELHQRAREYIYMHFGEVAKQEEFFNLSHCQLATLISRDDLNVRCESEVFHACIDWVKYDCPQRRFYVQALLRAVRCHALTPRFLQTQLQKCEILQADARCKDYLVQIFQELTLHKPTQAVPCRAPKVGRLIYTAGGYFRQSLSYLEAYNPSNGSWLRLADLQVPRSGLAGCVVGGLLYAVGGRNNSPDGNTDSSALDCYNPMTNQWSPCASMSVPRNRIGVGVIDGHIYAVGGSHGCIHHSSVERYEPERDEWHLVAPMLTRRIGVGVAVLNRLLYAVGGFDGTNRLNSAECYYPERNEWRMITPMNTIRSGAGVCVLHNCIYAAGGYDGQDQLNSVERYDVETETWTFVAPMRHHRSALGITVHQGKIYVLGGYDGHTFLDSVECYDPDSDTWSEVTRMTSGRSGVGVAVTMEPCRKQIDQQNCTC

BNL CL.2 [14] = experiment: Effect of ROS generation in mouse BNL CL.2 cells incubated at 10 uM for 24 hrs (reference value: 9.42%); type: functional
BNL CL.2 [15] = experiment: Effect of ROS generation in mouse BNL CL.2 cells incubated at 20 uM for 24 hrs (reference value: 9.42%); type: functional
BNL CL.2 [16] = experiment: Effect of ROS generation in mouse BNL CL.2 cells incubated at 40 uM for 24 hrs (reference value: 9.42%); type: functional
BNL CL.2 [17] = experiment: Inhibition of autophagy in mouse BNL CL.2 cells assessed as increase in p62 level incubated upto 80 uM for 24 hrs by immunoblotting analysis; type: functional, cell-based
BNL CL.2 [18] = experiment: Inhibition of autophagy in mouse BNL CL.2 cells assessed as decrease in LC3-II level incubated upto 80 uM for 24 hrs by immunoblotting analysis; type: functional, cell-based
BNL CL.2 [19] = experiment: Inhibition of autophagy in mouse BNL CL.2 cells assessed as suppression of autophagosome formation by measuring reduction in red puncta incubated upto 80 uM for 24 hrs by immuno fluoroscence analysis; type: functional, cell-based
BNL CL.2 [20] = experiment: Inhibition of autophagy in mouse BNL CL.2 cells assessed as suppression of autophagosome formation by measuring reduction in yellow puncta incubated upto 80 uM for 24 hrs by immuno fluoroscence analysis; type: functional, cell-based
BNL CL.2 [21] = experiment: Inhibition of autophagy in mouse BNL CL.2 cells assessed as suppression of autolysosome formation by measuring reduction in red puncta incubated upto 80 uM for 24 hrs by immuno fluoroscence analysis; type: functional, cell-based
BNL CL.2 [22] = experiment: Inhibition of autophagy in mouse BNL CL.2 cells assessed as suppression of autolysosome formation by measuring reduction in yellow puncta incubated upto 80 uM for 24 hrs by immuno fluoroscence analysis; type: functional, cell-based
Mus musculus [23] = experiment: Hepatoprotective activity against cisplatin induced liver injury […] mouse model assessed as no change in liver to body weight ratio at 40 mg/kg, ip administered every 24 hrs for 72 hrs; type: functional, organism-based
Mus musculus [24] = experiment: Hepatoprotective activity against cisplatin induced liver injury […] mouse model assessed as rescue of hepatocellular edema at 40 mg/kg, ip administered every 24 hrs for 72 hrs; type: functional, organism-based
Mus musculus [25] = experiment: Hepatoprotective activity against cisplatin induced liver injury […] mouse model assessed as rescue of disorder arrangement of hepatic cord at 40 mg/kg, ip administered every 24 hrs for 72 hrs; type: functional, organism-based
Mus musculus [26] = experiment: Hepatoprotective activity against cisplatin induced liver injury […] mouse model assessed as reduction of ALT in serum at 40 mg/kg, ip administered every 24 hrs for 72 hrs; type: functional, organism-based
Mus musculus [27] = experiment: Hepatoprotective activity against cisplatin induced liver injury […] mouse model assessed as reduction of AST in serum at 40 mg/kg, ip administered every 24 hrs for 72 hrs; type: functional, organism-based
Mus musculus [28] = experiment: Hepatoprotective activity against cisplatin induced liver injury […] mouse model assessed as reduction of MDA in liver tissue at 40 mg/kg, ip administered every 24 hrs for 72 hrs; type: functional, organism-based
Mus musculus [29] = experiment: Hepatoprotective activity against cisplatin induced liver injury […] mouse model assessed as reduction of […] in liver tissue at 40 mg/kg, ip administered every 24 hrs for 72 hrs; type: functional, organism-based
Mus musculus [30] = experiment: Hepatoprotective activity against cisplatin induced liver injury […] mouse model assessed as increase of NRF2 expression in liver tissue at 40 mg/kg, ip administered every 24 hrs for 72 hrs by IHC staining analysis; type: functional, organism-based
BNL CL.2 [31] = experiment: Effect on p62 level in mouse BNL CL.2 NRF2 knockout cells assessed as increase in protein level treated at 40 uM for 24 hrs by immunoblot analysis; type: functional, cell-based
BNL CL.2 [32] = experiment: Effect on KEAP1 level in mouse BNL CL.2 NRF2 knockout cells assessed as no change treated at 40 uM for 24 hrs by immunoblot analysis; type: functional, cell-based
BNL CL.2 [33] = experiment: Effect on KEAP1 level in mouse BNL CL.2 cells assessed as no change treated at 40 uM for 24 hrs by immunoblot analysis; type: functional, cell-based
BNL CL.2 [34] = experiment: Effect of ROS generation in cisplatin induced hepatotoxicity in mouse BNL CL.2 NRF2 knockout cells assessed as increase in ROS level treated at 40 uM for 24 hrs; type: functional, cell-based
BNL CL.2 [35] = experiment: Effect of ROS generation in cisplatin induced hepatotoxicity in mouse BNL CL.2 NRF2 cells assessed as increase in ROS level treated at 40 uM for 24 hrs; type: functional, cell-based
BNL CL.2 [36] = experiment: Effect of ROS generation in mouse BNL CL.2 NRF2 knockout cells assessed as increase in ROS level treated at 40 uM for 24 hrs (reference value: 10.6%); type: functional
BNL CL.2 [37] = experiment: Effect of ROS generation in cisplatin induced hepatotoxicity in mouse BNL CL.2 NRF2 knockout cells assessed as increase in ROS level treated at 40 uM for 24 hrs (reference value: 93.8%); type: functional
BNL CL.2 [38] = experiment: Effect of ROS generation in mouse BNL CL.2 cells assessed as increase in ROS level treated at 40 uM for 24 hrs (reference value: 8.04%); type: functional
BNL CL.2 [39] = experiment: Effect of ROS generation in cisplatin induced hepatotoxicity in mouse BNL CL.2 cells assessed as increase in ROS level treated at 40 uM for 24 hrs (reference value: 83%); type: functional
BNL CL.2 [40] = experiment: Upregulation of […] mRNA expression in mouse […] CL.2 cells; type: functional, cell-based
BNL CL.2 [41] = experiment: Upregulation of ARSG mRNA expression in mouse […] CL.2 cells; type: functional, cell-based
BNL CL.2 [42] = experiment: Upregulation of CCDC122 mRNA expression in mouse […] cells; type: functional, cell-based
BNL CL.2 [43] = experiment: Upregulation of DYNLT1 mRNA expression in mouse […] cells; type: functional, cell-based
BNL CL.2 [44] = experiment: Upregulation of DZANK1 mRNA expression in mouse […] cells; type: functional, cell-based
BNL CL.2 [45] = experiment: Upregulation of HIPK4 mRNA expression in mouse […] cells; type: functional, cell-based
BNL CL.2 [46] = experiment: Upregulation of NOTUM mRNA expression in mouse […] cells; type: functional, cell-based
BNL CL.2 [47] = experiment: Upregulation of OAS1 mRNA expression in mouse […] cells; type: functional, cell-based

O=C1C[C@@H](c2ccc(O)cc2)Oc2cc(O)ccc21 [LIQUIRTIGENIN]
Activity [1]: Dose-Dependent Effect
Activity [2]: Dose-Dependent Effect
Activity [3]: Dose-Dependent Effect
Activity (BNL CL.2 [4]): Active
Activity (Mus musculus [5]): Active
Activity [6]: Active
Activity [7]: Active
Activity [8]: Active
Activity [9]: inactive
Activity [10]: Active
Activity [11]: Active
Activity [12]: Active
inhibition [13]: Active
Activity (BNL CL.2 [14]): 9.8%
Activity (BNL CL.2 [15]): 9.34%
Activity (BNL CL.2 [16]): 4.52%
inhibition (BNL CL.2 [17]): Active
inhibition (BNL CL.2 [18]): Active
inhibition (BNL CL.2 [19]): Active
inhibition (BNL CL.2 [20]): Active
inhibition (BNL CL.2 [21]): Active
inhibition (BNL CL.2 [22]): Active
Activity (Mus musculus [23]): Active
Activity (Mus musculus [24]): Active
Activity (Mus musculus [25]): Active
Activity (Mus musculus [26]): Active
Activity (Mus musculus [27]): Active
Activity (Mus musculus [28]): Active
Activity (Mus musculus [29]): Active
Activity (Mus musculus [30]): Active
Activity (BNL CL.2 [31]): Active
Activity (BNL CL.2 [32]): Active
Activity (BNL CL.2 [33]): Active
Activity (BNL CL.2 [34]): Active
Activity (BNL CL.2 [35]): Active
Activity (BNL CL.2 [36]): 8.04%
Activity (BNL CL.2 [37]): 91.9%
Activity (BNL CL.2 [38]): 2.26%
Activity (BNL CL.2 [39]): 76%
Activity (BNL CL.2 [40]): Active
Activity (BNL CL.2 [41]): Active
Activity (BNL CL.2 [42]): Active
Activity (BNL CL.2 [43]): Active
Activity (BNL CL.2 [44]): Active
Activity (BNL CL.2 [45]): Active
Activity (BNL CL.2 [46]): Active
Activity (BNL CL.2 [47]): Active
